Laboratory results published in paper PMC7104226, “Antiepileptic Drug Carbamazepine Binds to a Novel Pocket on the Wnt Receptor Frizzled-8” (Journal of Medicinal Chemistry, 2020).

Molecular target: T1, FZD8 (frizzled-8) cysteine-rich domain, FZD8CRD (Mus musculus, UniProt Q61091)
T1 construct: Extracellular CRD A28-R153, pHL-Avi3, BirA-biotinylated, secreted from HEK293T, immobilized on streptavidin SPR chip
T1 sequence (Q61091 28-153): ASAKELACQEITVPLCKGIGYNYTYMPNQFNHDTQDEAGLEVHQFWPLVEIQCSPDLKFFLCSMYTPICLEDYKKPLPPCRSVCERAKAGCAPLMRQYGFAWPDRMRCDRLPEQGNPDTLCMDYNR
Assay: crystal structure at […] Å (N49E/N152E construct); SPR Kd on biotinylated FZD8CRD (A28-R153)
Assay type: binding

- Kd: 17 µM
SMILES: NC(=O)N1c2ccccc2C=Cc2ccccc21 [compound 79, 5H-dibenzo[b,f]azepine-5-carboxamide]
